Measured values from patent publication US4895835A, “Muramyl peptide derivatives and use thereof” (priority 1987, dated 1990).

What was measured:
[1] = tested on: B type hepatitis vaccine (HBs); assay: Enhancing effect on hepatitis vaccine (adjuvant activity), IgG antibody by ELISA; assay type: in vivo; details: CDF1 mouse; for Anti HBs-ELISA unit, Primary response serum: i.p. 0.2 ml compound (100 μg/ml) mixed with HBs vaccine, serum at 3 weeks; for Anti HBs-ELISA unit, Secondary response serum: second i.p. injection of 0.2 ml test solution, serum at 2 weeks
Description: (2) Enhancing effect on hepatitis vaccine (adjuvant activity)
A compound of the invention was dissolved or suspended in physiological saline (100 μg/ml), and mixed with a solution of B type hepatitis vaccine (HBs) in physiological saline (100 μg/m) at an equivalent weight ratio to obtain the test solution. A solution excluded the compound of the invention from the test solution was used as control.
The test solution (0.2 ml) was intraperitoneally injected into CDF1 mouse (one group consisting of 10 mice). At 3 weeks after the administration, a blood was taken from the intravenous vein in eyeground of each the mice and centrifuged to obtain serum (primary response serum). Further, 0.2 ml of the test solution was again intraperitoneally injected into each mice, and at 2 weeks stage, serum was separated in the similar way (secondary response serum).
Value for IgG antibody against B type hepatitis virus of the resulting serum was measured by ELISA method.

Meth A fibrosarcomas = assay: Antitumour effect, Meth A fibrosarcoma; assay type: in vivo; details: BALB/C mouse; s.c. 0.2 ml mixture of Meth A cells (1×10^6 cells/ml) and compound (1,000 μg/ml); after 35 days
Description: Meth A fibrosarcomas were suspended in phosphate buffered physiological saline (1×10^6 cells/ml). Separately, a solution of a compound of the invention in physiological saline was prepared (1,000 μg/ml). An equivalent weight mixture of these two solution (0.2 ml) was subcutaneously injected into BALB/C mouse (20 mice per group). Survival rate after 35 days was measured.

[2] = tested on: influenza HA vaccine (A/Bangkok/10/83 strain, H1N1); assay: Enhancing effect on influenza HA vaccine (adjuvant activity), ELISA; assay type: in vivo; details: CDF1 mouse, compound (100 μg/ml) mixed with influenza HA vaccine (100 CCA/ml)
Description: (3) Enhancing effect on influenza HA vaccine (adjuvant activity)
A compound of the invention was dissolved or suspended in physiological saline (100 μg/ml). Separately, influenza HA vaccine (A/Bangkok/10/83 strain, H1N1) was dissolved in physiological saline (100 CCA/ml). These two solutions were mixed in an equivalent weight to make the test solution. Control is a solution excluded the compound of the invention from the test solution.
The test solution was administered into CDF1 mouse in a similar way to that of the test of enhancing action for hepatitis vaccine as mentioned above, to obtain primary and secondary response sera.

[3] = tested on: leukemia cells of L-1210 mouse; assay: Activation for macrophages: cytostatic rate of intraperitoneal macrophages on leukemia cells; assay type: in vivo; details: CDF1 mouse i.p. 500 μg/ml, 0.2 ml; macrophages collected after 4 days; macrophages:L-1210 cells 20:1; 72 hours
Description: (4) Activation for macrophages
A test solution of a compound of the invention in physicological saline (500 μg/ml, 0.2 ml) was intraperioneally injected into CDF1 mouse (one group consisting of mice). Intraperioneal macrophages which were collected after 4 days and leukemia cells of L-1210 mouse were mixed at the cell ratio of 20 and 1. Each 200 μl of the mixture was put on a microplate having 96 holes. After 72 hours, numbers of cells in each holes were counted, and cytostatic rate of the mixture was measured.

BCG killed vaccine = assay: Enhancing action on BCG vaccine (adjuvant activity), 24 hours foot-pad test; assay type: in vivo; details: ICR mouse; s.c. 0.2 ml mixture of BCG killed vaccine (100 μg/ml) and compound in Freund's incomplete adjuvant (1000 μg/ml); tuberculin 10 μg after 14 days; measured after 24 hours
Description: (1) Enhancing action on BCG vaccine (adjuvant activity)
0.2 ml of an equivalent weight mixture of a solution of BCG killed vaccine in physiological saline (100 μg/ml) and a solution of a compound of the invention in Freund's incomplete adjuvant (1000 μg/ml) was subcutaneously injected to the back of ICR mouse (one group consisting of 7 mice). After 14 days, 10 μg of tuberculin was intradermally injected into the hind foot-pad. Swelling of the foot-pad was measured after 24 hours (24 hours foot-pad test).
The control is the above mentioned mixture excluded a compound of the invention.

[4] = tested on: Psud. aeruginosa (NCTC 10490); assay: Phylactic effect, Psud. aeruginosa infection; assay type: in vivo; details: ICR mouse; compound 500 μg/ml, 0.2 ml i.p. one day before infection i.p. 1×10^7 /mouse; after 7 days of infection
Description: (§1) A solution of a compound of the invention in physiological saline (500 μg/ml), 0.2 ml was intraperitoneally injected into ICR mouse (20 mice per group). After a day, E. coli (JC-2) and Psud. aeruginosa (NCTC 10490) were incubated through intraperitoneal route so as to be at concentration of 1×10^7 /mouse. Survival rate after 7 days of infection was measured.

E. coli (JC-2) = assay: Phylactic effect, E. coli infection; assay type: in vivo; details: ICR mouse; compound 500 μg/ml, 0.2 ml i.p. one day before infection i.p. 1×10^7 /mouse; after 7 days of infection
Description: as §1

[5] = Stimulation effect on antibody producing cells (plaque numbers, Cunningham technique); assay type: in vivo, ICR mouse; details: for Plaque No.: ICR mouse, SRBC i.v. and compound 500 μg/ml, 0.2 ml i.v., splenic cells after 4 days; for Stimulation index: plaque number relative to control (saline) = 1
Description: (5) Stimulation effect on anti-body precluding cells
A solution of sheep […] (SRBC) in phosphate buffered physiological saline (5×10^7 cells/ml), 0.2 ml was injected into tail intravenous vein of ICR mouse (7 mice per group). At the same time, a solution of a compound of the invention in physiological saline (500 μg/ml), 0.2 ml was similarly injected. After 4 days, lien was picked up from the treated mouse to obtain splenic cells. Plaque numbers were measured by Cunningham technique.

Row | Structure (SMILES) | Anti HBs-ELISA unit, Primary response serum [1] | Anti HBs-ELISA unit, Secondary response serum [1] | Survival rate (Meth A fibrosarcomas) [%] | Anti-influenza HA virus ELISA unit, Primary response serum [2] | Anti-influenza HA virus ELISA unit, Secondary response serum [2] | Cytostatic rate [3] [%] | Swelling of Foot-pad (BCG killed vaccine) [× 0.01 mm] | Survival rate, Psud. aeruginosa [4] [%] | Survival rate, E. coli (E. coli (JC-2)) [%] | Plaque No. [5] | Stimulation index [5]
1 | CCCCCCCCCCCC(=O)O[C@H](CCCCCCCCCCC)CC(=O)OC[C@H]1O[C@@H](S)[C@H](NC(C)=O)[C@@H](O[C@H](C)C(=O)N[C@@H](C)C(=O)N[C@H](CCC(=O)OC)C(N)=O)[C@@H]1O [Example 7, N-[[2-O-{2-Acetamido-2,3-dideoxy-6-O-[(3R)-3-dodecanoyloxytetradecanoyl]-1-thio-β-D-glucopyranos-3-yl}-D-lactoyl]]-L-alanyl-D-isoglutamine methyl ester] | 2,500 ELISA unit | 110,000 ELISA unit | 10 | 2,000 ELISA unit | 26,000 ELISA unit | 22.8 ± 2.6 | 50.6 ± 13.6 | 20 | 30 | 10.88 ± 9.8 × 10^3 | 2.3
2 | CCCCCCCCCCCC(=O)O[C@H](CCCCCCCCCCC)CC(=O)OC[C@H]1OC[C@H](NC(C)=O)[C@@H](O[C@H](C)C(=O)N[C@@H](C)C(=O)N[C@H](CCC(=O)OC)C(N)=O)[C@@H]1O [Example 4] | 5,200 ELISA unit | 175,000 ELISA unit | 35 | 2,300 ELISA unit | 32,000 ELISA unit | 55.2 ± 2.8 | 78.6 ± 19.1 | 50 | 65 | 6.67 ± 3.6 × 10^3 | 1.4
3 | CCCCCCCCCCCCCC(=O)O[C@H](CCCCCCCCCCC)CC(=O)OC[C@H]1O[C@@H](S)[C@H](NC(C)=O)[C@@H](O[C@H](C)C(=O)N[C@@H](C)C(=O)N[C@H](CCC(=O)OC)C(N)=O)[C@@H]1O [Example 8, N-[[2-O-{2-Acetamido-2,3-dideoxy-6-O-[(3R)-3-tetradecanoyloxytetradecanoyl]-1-thio-β-D-glucopyranos-3-yl}-D-lactoyl]]-L-alanyl-D-isoglutamine methyl ester] | 2,200 ELISA unit | 105,000 ELISA unit | 5 | 2,100 ELISA unit | 22,000 ELISA unit | 31.6 ± 1.6 | 51.8 ± 11.0 | 20 | 35 | 8.63 ± 7.9 × 10^3 | 1.8
4 | CCCCCCCCCCCCCCCC(=O)O[C@H](CCCCCCCCCCC)CC(=O)OC[C@H]1OC(O)[C@H](NC(C)=O)[C@@H](O[C@H](C)C(=O)N[C@@H](C)C(=O)N[C@H](CCC(=O)OC)C(N)=O)[C@@H]1O (stereo partly drawn) [Example 3, N-[[2-O-{2-Acetamido-2,3-dideoxy-6-O-[(3R)-3-hexadecanoyloytetradecanoyl]-D-glucopyranos-3-yl}-D-lactoyl]]-L-alanyl-D-isoglutamine methyl ester] | 24,000 ELISA unit | 575,000 ELISA unit | 20 | 5,200 ELISA unit | 57,000 ELISA unit | 22.3 ± 1.0 | 66.2 ± 12.3 | 40 | 45 | 21.23 ± 9.9 × 10^3 | 4.4
5 | CCCCCCCCCCCC(=O)O[C@H](CCCCCCCCCCC)CC(=O)OC[C@H]1OC(O)[C@H](NC(C)=O)[C@@H](O[C@H](C)C(=O)N[C@@H](C)C(=O)N[C@H](CCC(=O)OC)C(N)=O)[C@@H]1O (stereo partly drawn) [Example 1, N-[[2-O-{2-Acetamido-2,3-dideoxy-6-O-[(3R)-3-dodecanoyloxytetradecanoyl]-D-glucopyranos-3-yl}-D-lactoyl]]-L-alanyl-D-isoglutamine methyl ester] | 10,800 ELISA unit | 150,000 ELISA unit | 30 | 4,800 ELISA unit | 34,000 ELISA unit | 40.0 ± 1.2 | 59.2 ± 15.1 | 45 | 50 | 10.56 ± 8.3 × 10^3 | 2.2
6 | CCCCCCCCCCCCCC(=O)O[C@H](CCCCCCCCCCC)CC(=O)OC[C@H]1OC[C@H](NC(C)=O)[C@@H](O[C@H](C)C(=O)N[C@@H](C)C(=O)N[C@H](CCC(=O)OC)C(N)=O)[C@@H]1O [Example 5, N-[[2-O-{2-Acetamido-1,5-anhydro-2,3-dideoxy-6-O-[(3R)-3-tetradodecanoyloxytetradecanoyl]-D-glucitol-3-yl}-D-lactoyl]]-L-alanyl-D-isoglutamine methyl ester] | 3,600 ELISA unit | 120,000 ELISA unit | 35 | 1,800 ELISA unit | 28,000 ELISA unit | 58.6 ± 2.9 | 69.3 ± 18.8 | 55 | 70 | 5.83 ± 3.2 × 10^3 | 1.2
